Experiment [1] addresses KRAS G12D (Homo sapiens, UniProt P01116, G12D). Briefly: GDP-GTP exchange assay (bodipy-GDP/GppNHp, SOS1), KRAS G12D. Type of experiment: biochemical. The conditions noted are these: KRAS_G12D exchange assay IC50; 4 h pre-incubation; value for the most potent isomer quoted. As to the method: (§1) The inhibitor potency of the exemplified compounds was determined in a fluorescence based guanine nucleotide exchange assay, which measures the exchange of bodipy-GDP (fluorescently labeled GDP) for GppNHp (Non-hydrolyzable GTP analog) to generate the active state of KRAS in the presence of SOS1 (guanine nucleotide exchange factor). Inhibitors were serially diluted in DMSO and a volume of 0.1 μL was transferred to the wells of a black low volume 384-well plate. 5 μL/well volume of bodipy-loaded KRAS G12D diluted to […] in assay buffer (25 mM Hepes pH 7.5, 50 mM NaCl, 10 mM mgCl2 and 0.01% Brij-35) was added to the plate and pre-incubated with inhibitor for 4 h at ambient temperature. Appropriate controls (enzyme with no inhibitor or with a G12D inhibitor) were included on the plate. The exchange was initiated by the addition of a 5 μL/well volume containing 1 mM GppNHp and 300 nM SOS1 in assay buffer. The 10 μL/well reaction concentration of the bodipy-loaded KRAS G12D, GppNHp, and SOS1 were 2.5 nM, 500 uM, and 150 nM, respectively. The reaction plates were incubated at ambient temperature for 2 h, a time estimated for complete GDP-GTP exchange in the absence of inhibitor. For the KRAS G12V mutant, similar guanine nucleotide exchange assays were used with 2.5 nM as final concentration for the bodipy loaded KRAS proteins and 3 h incubation after adding GppNHp-SOS1 mixture. A cyclic peptide described to selectively bind G12D mutant (Sakamoto et al., BBRC 484.3 (2017), 605-611) or internal compounds with confirmed binding were used as positive controls in the assay plates. Fluorescence intensities were measured on a PheraStar plate reader instrument (BMG Labtech) with excitation at 485 nm and emission at 520 nm.
(§2) Either GraphPad prism or Genedata Screener SmartFit was used to analyze the data. The IC50 values were derived by fitting the data to a four parameter logistic equation producing a sigmoidal dose-response curve with a variable Hill coefficient.
(§3) The symbol “t” indicates IC50≤100 nM, “††” indicates IC50>100 nM but ≤1 μM; and “†††” indicates IC50 is >1 μM but ≤5 μM, “††††” indicates IC50 is >5 μM but ≤10 μM. “NA” indicates IC50 not available.

The target of experiment [2] is KRAS G12V (Homo sapiens, UniProt P01116, G12V). Briefly: GDP-GTP exchange assay (bodipy-GDP/GppNHp, SOS1), KRAS G12V. The format is biochemical. The conditions noted are these: KRAS_G12V exchange assay IC50, value for the most potent isomer quoted; for IC50: read-out: G12V_exchange. On the procedure: as §1, §2, §3
Sequence of KRAS G12V (P01116 1-188 isoform P01116-2 G12V): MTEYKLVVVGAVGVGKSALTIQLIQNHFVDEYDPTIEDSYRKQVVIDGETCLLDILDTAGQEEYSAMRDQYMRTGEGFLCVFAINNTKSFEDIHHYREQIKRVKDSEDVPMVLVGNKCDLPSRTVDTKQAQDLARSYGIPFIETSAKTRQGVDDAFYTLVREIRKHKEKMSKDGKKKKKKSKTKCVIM

Sequence of KRAS G12D (P01116 1-188 isoform P01116-2 G12D): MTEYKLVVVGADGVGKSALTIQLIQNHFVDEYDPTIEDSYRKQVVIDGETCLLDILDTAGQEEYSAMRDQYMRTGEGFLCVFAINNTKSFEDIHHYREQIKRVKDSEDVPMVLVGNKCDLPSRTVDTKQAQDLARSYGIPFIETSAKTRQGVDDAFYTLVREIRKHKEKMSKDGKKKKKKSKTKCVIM

For `Cc1nc2c(F)c(-c3cccc(Cl)c3Cl)c(CCC#N)cc2c2c1cc([C@@H](C)N1CCCN(c3ccc(F)cc3)C1=O)n2[C@H]1[C@H]2CN[C@@H]1C2` [Example 18, 3-(1-((1R,4R,5S)-2-azabicyclo[2.1.1]hexan-5-yl)-7-(2,3-dichlorophenyl)-6-fluoro-2-((R)-1-(3-(4-fluorophenyl)-2-oxotetrahydropyrimidin-1(2H)-yl)ethyl)-4-methyl-1H-pyrrolo[3,2-c]quinolin-8-yl)propanenitrile], the G12D_exchange result in experiment [1] is reported as “†”. Also, the G12V_exchange result in experiment [2] is reported as “†”.

Consider `Cc1nc2c(F)c(-c3cccc(Cl)c3Cl)c(CCC#N)cc2c2c1cc([C@@H](C)N1CCCN(c3ccnc(F)c3)C1=O)n2[C@H]1[C@H]2CN[C@@H]1C2` [Example 27, 3-(1-((1R,4R,5S)-2-azabicyclo[2.1.1]hexan-5-yl)-7-(2,3-dichlorophenyl)-6-fluoro-2-((R)-1-(3-(2-fluoropyridin-4-yl)-2-oxotetrahydropyrimidin-1(2H)-yl)ethyl)-4-methyl-1H-pyrrolo[3,2-c]quinolin-8-yl)propanenitrile], for which the G12D_exchange result in experiment [1] was “†”. Moreover, the G12V_exchange result in experiment [2] is given as “†”.

Take `Cc1nc2c(F)c(-c3cccc(Cl)c3Cl)c(CCC#N)cc2c2c1cc([C@@H](C)N1CCCN(c3ccnc(C(F)F)c3)C1=O)n2[C@H]1[C@H]2CN[C@@H]1C2` [Example 31, 3-(1-((1R,4R,5S)-2-azabicyclo[2.1.1]hexan-5-yl)-7-(2,3-dichlorophenyl)-2-((R)-1-(3-(2-(difluoromethyl)pyridin-4-yl)-2-oxotetrahydropyrimidin-1(2H)-yl)ethyl)-6-fluoro-4-methyl-1H-pyrrolo[3,2-c]quinolin-8-yl)propanenitrile]: the G12D_exchange entry in experiment [1] is reported as “†”. Further, the IC50 in experiment [2] was 100 to 1000 nM.

On to `Cc1nc2c(F)c(-c3cccc(Cl)c3Cl)c(CCC#N)cc2c2c1cc([C@@H](C)N1CCCN(c3ccncn3)C1=O)n2[C@H]1[C@H]2CN[C@@H]1C2` [Example 33, 3-(1-((1R,4R,5S)-2-azabicyclo[2.1.1]hexan-5-yl)-7-(2,3-dichlorophenyl)-6-fluoro-4-methyl-2-((R)-1-(2-oxo-3-(pyrimidin-4-yl)tetrahydropyrimidin-1(2H)-yl)ethyl)-1H-pyrrolo[3,2-c]quinolin-8-yl)propanenitrile], for which, in experiment [1], the G12D_exchange result is on record as “†”. Besides, the IC50 in experiment [2] was 100 to 1000 nM.

`Cc1nc2c(F)c(-c3cccc(Cl)c3Cl)c(CCC#N)cc2c2c1cc([C@@H](C)N1CCCN(c3ccncn3)C1=O)n2[C@H]1[C@H]2CN[C@@H]1C2` (single isomer, unassigned) [Example 11]: the G12D_exchange result in experiment [1] was “†”. Further, the IC50 in experiment [2] was 100 to 1000 nM.

Regarding `CC(=O)NCc1cccc(N2CCCN([C@H](C)c3cc4c(C)nc5c(F)c(-c6cccc(Cl)c6Cl)c(CCC#N)cc5c4n3[C@H]3[C@H]4CN[C@@H]3C4)C2=O)c1` [Example 28, N-(3-(3-((1R)-1-(1-((1R,4R,5S)-2-azabicyclo[2.1.1]hexan-5-yl)-8-(2-cyanoethyl)-7-(2,3-dichlorophenyl)-6-fluoro-4-methyl-1H-pyrrolo[3,2-c]quinolin-2-yl)ethyl)-2-oxotetrahydropyrimidin-1(2H)-yl)benzyl)acetamide], in experiment [1], the G12D_exchange entry is “†”. In addition, in experiment [2], the G12V_exchange result is on record as “†”.

In the case of `Cc1nc2c(F)c(-c3cccc(Cl)c3Cl)c(CCC#N)cc2c2c1cc([C@@H](C)N1CCCN(c3ccc(C#N)cc3)C1=O)n2[C@H]1[C@H]2CN[C@@H]1C2` [Example 25, 4-(3-((1R)-1-(1-((1R,4R,5S)-2-azabicyclo[2.1.1]hexan-5-yl)-8-(2-cyanoethyl)-7-(2,3-dichlorophenyl)-6-fluoro-4-methyl-1H-pyrrolo[3,2-c]quinolin-2-yl)ethyl)-2-oxotetrahydropyrimidin-1(2H)-yl)benzonitrile], the G12D_exchange result in experiment [1] is recorded as “†”. Moreover, the IC50 in experiment [2] lay in the range of 100 to 1000 nM.

Take `Cc1nc2c(F)c(-c3cccc(Cl)c3Cl)c(CCC#N)cc2c2c1cc([C@@H](C)N1CCCN(c3cccc(F)n3)C1=O)n2[C@H]1[C@H]2CN[C@@H]1C2` [Example 41, 3-(1-((1R,4R,5S)-2-azabicyclo[2.1.1]hexan-5-yl)-7-(2,3-dichlorophenyl)-6-fluoro-2-((R)-1-(3-(6-fluoropyridin-2-yl)-2-oxotetrahydropyrimidin-1(2H)-yl)ethyl)-4-methyl-1H-pyrrolo[3,2-c]quinolin-8-yl)propanenitrile]: the G12D_exchange entry in experiment [1] is “†”. Moreover, the IC50 in experiment [2] fell in the range of 100 to 1000 nM.

Consider `Cc1nc2c(F)c(-c3cccc(Cl)c3Cl)c(CCC#N)cc2c2c1cc([C@@H](C)N1CCCN(c3ccncc3F)C1=O)n2[C@H]1[C@H]2CN[C@@H]1C2` [Example 21, 3-(1-((1R,4R,5S)-2-azabicyclo[2.1.1]hexan-5-yl)-7-(2,3-dichlorophenyl)-6-fluoro-2-((R)-1-(3-(3-fluoropyridin-4-yl)-2-oxotetrahydropyrimidin-1(2H)-yl)ethyl)-4-methyl-1H-pyrrolo[3,2-c]quinolin-8-yl)propanenitrile], for which the G12D_exchange entry in experiment [1] is on record as “†”. In experiment [2], the G12V_exchange result is “†”.

Regarding `Cc1nc2c(F)c(-c3cccc(Cl)c3Cl)c(CCC#N)cc2c2c1cc([C@@H](C)N1CCCN(c3ccc(F)cn3)C1=O)n2[C@H]1[C@H]2CN[C@@H]1C2` [Example 40, 3-(1-((1R,4R,5S)-2-azabicyclo[2.1.1]hexan-5-yl)-7-(2,3-dichlorophenyl)-6-fluoro-2-((R)-1-(3-(5-fluoropyridin-2-yl)-2-oxotetrahydropyrimidin-1(2H)-yl)ethyl)-4-methyl-1H-pyrrolo[3,2-c]quinolin-8-yl)propanenitrile], in experiment [1], the G12D_exchange result was “†”. For the same compound, the G12V_exchange result in experiment [2] is “†”.

Turning to `Cc1nc2c(F)c(-c3cccc(Cl)c3Cl)c(CCC#N)cc2c2c1cc([C@@H](C)N1CCCN(c3ccnc4sccc34)C1=O)n2[C@H]1[C@H]2CN[C@@H]1C2` [Example 38, 3-(1-((1R,4R,5S)-2-azabicyclo[2.1.1]hexan-5-yl)-7-(2,3-dichlorophenyl)-6-fluoro-4-methyl-2-((R)-1-(2-oxo-3-(thieno[2,3-b]pyridin-4-yl)tetrahydropyrimidin-1(2H)-yl)ethyl)-1H-pyrrolo[3,2-c]quinolin-8-yl)propanenitrile], in experiment [1], the G12D_exchange entry is recorded as “†”. For the same compound, in experiment [2], the G12V_exchange entry is given as “†”.

In the case of `Cc1nc2c(F)c(-c3cccc(Cl)c3Cl)c(CCC#N)cc2c2c1cc([C@@H](C)N1CCCN(c3ccccc3)C1=O)n2[C@H]1[C@H]2CN[C@@H]1C2` [Example 16, 3-(1-((1R,4R,5S)-2-azabicyclo[2.1.1]hexan-5-yl)-7-(2,3-dichlorophenyl)-6-fluoro-4-methyl-2-((R)-1-(2-oxo-3-phenyltetrahydropyrimidin-1(2H)-yl)ethyl)-1H-pyrrolo[3,2-c]quinolin-8-yl)propanenitrile], in experiment [1], the G12D_exchange entry is “†”. In addition, in experiment [2], the G12V_exchange result is on record as “†”.

As for `COc1ncccc1N1CCCN([C@H](C)c2cc3c(C)nc4c(F)c(-c5cccc(Cl)c5Cl)c(CCC#N)cc4c3n2[C@H]2[C@H]3CN[C@@H]2C3)C1=O` [Example 20, 3-(1-((1R,4R,5S)-2-azabicyclo[2.1.1]hexan-5-yl)-7-(2,3-dichlorophenyl)-6-fluoro-2-((R)-1-(3-(2-methoxypyridin-3-yl)-2-oxotetrahydropyrimidin-1(2H)-yl)ethyl)-4-methyl-1H-pyrrolo[3,2-c]quinolin-8-yl)propanenitrile], in experiment [1], the G12D_exchange entry is “†”. Moreover, the IC50 in experiment [2] lay in the range of 100 to 1000 nM.
